In publication PMC3770139 (Molecular cell, 2013):

Biological target: T1, Gpa1 (yeast Gα) (Saccharomyces cerevisiae, UniProt P08539)
T1 sequence (P08539 2-472): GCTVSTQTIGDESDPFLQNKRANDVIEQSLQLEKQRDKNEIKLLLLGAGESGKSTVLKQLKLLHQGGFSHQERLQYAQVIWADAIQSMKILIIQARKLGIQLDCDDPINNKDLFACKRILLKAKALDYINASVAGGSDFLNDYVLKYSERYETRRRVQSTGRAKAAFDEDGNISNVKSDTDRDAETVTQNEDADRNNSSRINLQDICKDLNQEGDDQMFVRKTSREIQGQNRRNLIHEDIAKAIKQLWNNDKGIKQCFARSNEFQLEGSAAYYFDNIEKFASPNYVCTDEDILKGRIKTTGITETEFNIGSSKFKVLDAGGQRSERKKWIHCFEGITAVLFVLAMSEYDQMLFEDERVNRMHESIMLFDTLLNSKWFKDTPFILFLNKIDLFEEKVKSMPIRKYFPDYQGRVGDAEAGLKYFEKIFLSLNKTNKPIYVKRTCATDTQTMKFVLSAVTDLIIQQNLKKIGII
Test: steady-state hydrolysis of gamma-32P GTP, charcoal assay
Assay type: biochemical
Details: turnover only; 5 µM GTP, 1 mM MgCl2, 37 °C, pH 6.0, 7.0, 8.0

SMILES: Nc1nc2c(ncn2[C@@H]2O[C@H](COP(=O)(O)OP(=O)(O)OP(=O)(O)O)[C@@H](O)[C@H]2O)c(=O)[nH]1 [GTP]
- steady-state hydrolysis of gamma-32P GTP, charcoal assay: Steady-state GTP hydrolysis by yeast Gpa1 and mammalian Gαi
